Measured values: ChEMBL document CHEMBL1201862, “PubChem BioAssay data set” (2004)
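Results reflect a 48-hour exposure of cells in 96-well plates to compound at five concentrations. GI50 marks 50% less growth.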 Activity calls are given as the source filed them. No stated cut-off is given here; in the data, active = GI50 up to about 1.1 µM and inactive = higher.

Assays:
Experiment in all cases: inhibition of tumour cell growth, NCI panel, 48 h
[1] = system: A549
[2] = system: EKVX
[3] = system: HCT-116
[4] = system: HOP-92
[5] = system: HT-29
[6] = system: K562
[7] = system: LOX IMVI
[8] = system: MCF7
[9] = system: NCI-H226
[10] = system: NCI-H460
[11] = system: NCI-H522
[12] = system: OVCAR-4
[13] = system: RPMI-8226
[14] = system: RXF 393
[15] = system: SF-539
[16] = system: SN12C
[17] = system: SNB-75
[18] = system: SW-620
[19] = system: HL-60
[20] = system: DU-145

Structure (SMILES)	GI50 [1]	GI50 [2]	GI50 [3]	GI50 [4]	GI50 [5]	GI50 [6]	GI50 [7]	GI50 [8]	GI50 [9]	GI50 [10]	GI50 [11]	GI50 [12]	GI50 [13]	GI50 [14]	GI50 [15]	GI50 [16]	GI50 [17]	GI50 [18]	GI50 [19]	GI50 [20]
O=C(c1ccncc1)C1C(=O)c2ccccc2C1C1(O)c2ccccc2CC1C(O)c1ccncc1 (centres undefined)	29.6 µM (inactive)	33 µM (inactive)	28.2 µM (inactive)	47.9 µM (inactive)	35.6 µM (inactive)	42 µM (inactive)	33.4 µM (inactive)	39.6 µM (inactive)	> 100 µM (inactive)	34.2 µM (inactive)	31.3 µM (inactive)	27.9 µM (inactive)	19 µM (inactive)	39.6 µM (inactive)	77.6 µM (inactive)	46.9 µM (inactive)	50 µM (inactive)	71.8 µM (inactive)	–	–
CC(C)C12C=CC(C)(CC1)n1c(=O)c3cc4ccccc4cc3c(=O)n12 (centres undefined)	45.4 µM (inactive)	43.5 µM (inactive)	47.2 µM (inactive)	38.5 µM (inactive)	45.1 µM (inactive)	34.4 µM (inactive)	41.9 µM (inactive)	–	40.6 µM (inactive)	45.5 µM (inactive)	29.3 µM (inactive)	43.9 µM (inactive)	36.3 µM (inactive)	> 100 µM (inactive)	66.7 µM (inactive)	34.7 µM (inactive)	33.7 µM (inactive)	60.1 µM (inactive)	34 µM (inactive)	–
CC1(C)CC2=NC(SSC3=C(C#N)C(c4ccc(Br)cc4)C4=C(O)CC(C)(C)CC4=N3)=C(C#N)C(c3ccc(Br)cc3)C2=C(O)C1 (centres undefined)	> 100 µM (inactive)	> 100 µM (inactive)	> 100 µM (inactive)	70.6 µM (inactive)	> 100 µM (inactive)	75 µM (inactive)	> 100 µM (inactive)	–	> 100 µM (inactive)	> 100 µM (inactive)	57.7 µM (inactive)	> 100 µM (inactive)	67.8 µM (inactive)	> 100 µM (inactive)	> 100 µM (inactive)	> 100 µM (inactive)	–	> 100 µM (inactive)	46.6 µM (inactive)	> 100 µM (inactive)
NNC(=O)c1nnn(CCc2ccccc2)c1C(=O)NN	> 100 µM (inactive)	> 100 µM (inactive)	> 100 µM (inactive)	–	> 100 µM (inactive)	> 100 µM (inactive)	> 100 µM (inactive)	> 100 µM (inactive)	–	> 100 µM (inactive)	–	> 100 µM (inactive)	> 100 µM (inactive)	–	–	> 100 µM (inactive)	–	–	> 100 µM (inactive)	> 100 µM (inactive)
C=CCCCCCCCCC(=O)NS(=O)(=O)c1ccccc1	57.7 µM (inactive)	> 100 µM (inactive)	93.8 µM (inactive)	56.9 µM (inactive)	> 100 µM (inactive)	54.5 µM (inactive)	> 100 µM (inactive)	–	> 100 µM (inactive)	> 100 µM (inactive)	55.3 µM (inactive)	> 100 µM (inactive)	35.8 µM (inactive)	> 100 µM (inactive)	> 100 µM (inactive)	> 100 µM (inactive)	92.5 µM (inactive)	> 100 µM (inactive)	44.7 µM (inactive)	–
N#Cc1c(-c2ccccc2)c(/C=N/c2ccc(Cl)cc2)c(=O)n2c1[nH]c1ccccc12	83.9 µM (inactive)	–	0.424 µM (active)	–	–	–	> 100 µM (inactive)	> 100 µM (inactive)	> 100 µM (inactive)	> 100 µM (inactive)	61.2 µM (inactive)	> 100 µM (inactive)	4.43 µM (inactive)	> 100 µM (inactive)	> 100 µM (inactive)	97.7 µM (inactive)	> 100 µM (inactive)	> 100 µM (inactive)	–	–
